Experimental data taken from patent US10766888B1, “HMOX1 inducers” (Mitobridge Inc., priority 2019, dated 2020).

Molecular target: hERG channel (Homo sapiens, UniProt Q12809)
Experiment: hERG manual patch clamp assay
Assay type: cell-based
Settings: HEK 293 cells stably expressing hERG channel, pH 7.35, 10 μM compound
In short: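 Whole-cell manual patch clamp on doxycycline-induced HEK293 cells stably expressing hERG. Tail current measured at −50 mV after a 4.8 s step to +30 mV from −90 mV holding; test compounds at 10 μM, 0.1% DMSO, vs vehicle baseline. Percent inhibition from peak tail current, […].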

Sequence of hERG channel (Q12809 whole entry): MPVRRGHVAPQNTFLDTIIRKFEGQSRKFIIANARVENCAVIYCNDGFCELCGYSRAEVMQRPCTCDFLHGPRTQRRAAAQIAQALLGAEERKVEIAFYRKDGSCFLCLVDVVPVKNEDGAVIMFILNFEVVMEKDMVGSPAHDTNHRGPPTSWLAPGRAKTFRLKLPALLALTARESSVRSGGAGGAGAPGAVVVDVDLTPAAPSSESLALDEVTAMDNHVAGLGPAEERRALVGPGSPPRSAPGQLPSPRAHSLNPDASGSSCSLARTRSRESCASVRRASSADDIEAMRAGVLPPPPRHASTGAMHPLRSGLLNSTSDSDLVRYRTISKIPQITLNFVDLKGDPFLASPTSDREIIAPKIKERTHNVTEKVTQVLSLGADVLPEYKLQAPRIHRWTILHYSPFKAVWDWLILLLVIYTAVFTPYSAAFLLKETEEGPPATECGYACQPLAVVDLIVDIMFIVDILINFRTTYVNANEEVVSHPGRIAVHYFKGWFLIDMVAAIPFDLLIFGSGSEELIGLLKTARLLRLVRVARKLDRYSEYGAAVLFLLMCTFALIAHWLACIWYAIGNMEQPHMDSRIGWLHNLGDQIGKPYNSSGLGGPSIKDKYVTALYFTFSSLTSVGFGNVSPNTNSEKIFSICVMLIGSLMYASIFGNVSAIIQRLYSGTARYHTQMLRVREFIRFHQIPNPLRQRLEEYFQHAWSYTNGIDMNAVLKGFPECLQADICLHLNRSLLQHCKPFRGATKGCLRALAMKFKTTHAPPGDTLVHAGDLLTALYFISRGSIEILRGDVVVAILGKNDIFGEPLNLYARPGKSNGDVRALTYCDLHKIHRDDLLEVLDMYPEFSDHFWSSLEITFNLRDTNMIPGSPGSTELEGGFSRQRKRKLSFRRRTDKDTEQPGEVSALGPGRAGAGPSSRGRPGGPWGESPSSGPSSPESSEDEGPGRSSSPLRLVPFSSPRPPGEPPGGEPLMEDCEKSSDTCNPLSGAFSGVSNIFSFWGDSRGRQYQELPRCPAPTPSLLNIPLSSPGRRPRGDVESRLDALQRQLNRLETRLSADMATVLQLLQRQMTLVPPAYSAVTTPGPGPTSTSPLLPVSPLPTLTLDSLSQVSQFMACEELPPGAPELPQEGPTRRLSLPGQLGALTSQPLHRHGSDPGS

Structure (SMILES) | inhibition at 10 µM [%]
Cn1c(Nc2nc3ccccc3o2)nc2cc(C(=O)NCCOCCO)ccc21 [Example 17, 2-(benzo[d]oxazol-2-ylamino)-N-(2-(2-hydroxyethoxy)ethyl)-1-methyl-1H-benzo[d]imidazole-5-carboxamide] | 16
COCCNC(=O)c1ccc2c(c1)nc(Nc1nc3ccc(OCCOC)cc3o1)n2C [Example 56, 2-((6-(2-methoxyethoxy)benzo[d]oxazol-2-yl)amino)-N-(2-methoxyethyl)-1-methyl-1H-benzo[d]imidazole-5-carboxamide] | 35
